Results taken from patent US7998965B2, “Glutamate aggrecanase inhibitors” (Wyeth LLC, priority 2005, dated 2011).
Where two headings read alike, the source gives them in different places.

Target: T1, purified recombinant human Aggrecanase-1 (rAgg1) (Homo sapiens, UniProt O75173)
T1 sequence (O75173 213-837): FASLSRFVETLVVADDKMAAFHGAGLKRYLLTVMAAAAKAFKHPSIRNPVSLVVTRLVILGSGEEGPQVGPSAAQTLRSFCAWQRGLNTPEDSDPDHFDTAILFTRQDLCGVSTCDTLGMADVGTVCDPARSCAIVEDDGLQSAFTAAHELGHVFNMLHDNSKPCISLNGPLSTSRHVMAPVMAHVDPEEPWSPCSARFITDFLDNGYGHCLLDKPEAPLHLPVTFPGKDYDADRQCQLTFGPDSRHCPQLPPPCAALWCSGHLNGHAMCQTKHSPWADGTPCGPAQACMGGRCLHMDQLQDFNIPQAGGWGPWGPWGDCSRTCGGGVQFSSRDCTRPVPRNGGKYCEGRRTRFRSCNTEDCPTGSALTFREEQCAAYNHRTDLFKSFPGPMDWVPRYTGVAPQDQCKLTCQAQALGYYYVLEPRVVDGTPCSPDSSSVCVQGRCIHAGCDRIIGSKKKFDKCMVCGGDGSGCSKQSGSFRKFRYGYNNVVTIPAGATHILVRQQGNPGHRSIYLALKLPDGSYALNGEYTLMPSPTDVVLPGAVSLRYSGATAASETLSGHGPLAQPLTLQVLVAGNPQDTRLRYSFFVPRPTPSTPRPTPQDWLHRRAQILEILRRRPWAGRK
Test: In vitro fluorescence screen for Aggrecanase-1 inhibitors
Assay type: biochemical
Settings: for IC50: read-out: Agg1 IC50

| Compound | IC50 (Table 1) | other results |
| --- | --- | --- |
| CCCCN(C)C(=O)[C@H](CCC(=O)O)NC(=O)c1ccc(-c2ccccc2)cc1 [Example 8EEEEEE, N^2-(biphenyl-4-ylcarbonyl)-N-butyl-N-methyl-L-α-glutamine] | – | IC50 (Table 2): 5000 nM |
| CCCCCCNC(=O)[C@H](CCC(=O)O)NC(=O)c1ccc2c(c1)C(=O)c1ccccc1-2 [Example 8RRRR, N^1-hexyl-N^2-[(9-oxo-9H-fluoren-2-yl)carbonyl]-L-α-glutamine] | 122 nM | – |
| NC(=O)[C@H](CCC(=O)O)NC(=O)c1ccc(Nc2ncccn2)cc1 [Example 3, N^2-[4-(pyrimidin-2-ylamino)benzoyl]-L-alpha-glutamine] | 12700 nM | – |
| O=C(O)CC[C@H](NC(=O)c1ccc(-c2ccc(OCC3CCCCC3)cc2)cc1)C(=O)NCc1ccccc1 [Example 15D, N^1-benzyl-N^2-{[4′-(cyclohexylmethoxy)-1,1′-biphenyl-4-yl]carbonyl}-L-α-glutamine] | – | Agg1 % @ concentration (Table 1, @ 7,500 (nM)): 86% @ |
| COc1cc(CNC(=O)[C@H](CCC(=O)O)NC(=O)c2ccc3c(c2)Cc2ccccc2-3)cc(OC)c1OC [Example 8KKKK, N^2-(9H-fluoren-2-ylcarbonyl)-N^1-(3,4,5-trimethoxybenzyl)-L-α-glutamine] | < 30 nM | Ki (Table 1, enzyme not given, column follows Agg1 IC50, read-out: Ki): 4 nM |
| O=C(O)CC[C@H](NC(=O)c1ccc(-c2ccco2)o1)C(=O)NCc1ccccc1 [Example 21C, N^1-benzyl-N^2-(2,2′-bifuran-5-ylcarbonyl)-L-α-glutamine] | – | Agg1 IC50 (nM) (Table 1): no inh |
| COc1cc(C(=O)N[C@@H](CCC(=O)O)C(=O)NCc2ccccc2)cc(OC)c1-c1ccccc1 [Example 17AAA, N^1-benzyl-N^2-[(2,6-dimethoxy-1,1′-biphenyl-4-yl)carbonyl]-L-α-glutamine] | – | Agg1 IC50 (nM) (Table 1): no inh |
| O=C(O)CC[C@H](NC(=O)c1ccc(-c2ccc(NC(=O)c3ccco3)cc2)cc1)C(=O)O [Example 28, N-{[4′-(2-furoylamino)-1,1′-biphenyl-4-yl]carbonyl}-L-α-glutamic acid] | 400 nM | – |
| O=C(O)CC[C@H](NC(=O)c1ccc(-c2cccs2)o1)C(=O)NCc1ccccc1 [Example 21D, N^1-benzyl-N^2-(5-thien-2-yl-2-furoyl)-L-α-glutamine] | – | Agg1 IC50 (nM) (Table 1): no inh |
| O=C(O)CC[C@H](NC(=O)c1ccc(-c2ccccc2)cc1)C(=O)NCc1cccc(-c2ccc(C(F)(F)F)cc2)c1 [Example 10O, N^2-(biphenyl-4-ylcarbonyl)-N^1-{[4′-(trifluoromethyl)biphenyl-3-yl]methyl}-L-α-glutamine] | 470 nM | – |
| O=Cc1ccc(-c2ccc(CCNC(=O)[C@H](CCC(=O)O)NC(=O)c3ccc(-c4ccccc4)cc3)cc2)cc1 [Example 9, N^2-(biphenyl-4-ylcarbonyl)-N^1-[2-(4′-formylbiphenyl-4-yl)ethyl]-L-α-glutamine] | 200 nM | – |
| O=C(O)CC[C@H](NC(=O)c1ccc(-c2ccccc2)nc1)C(=O)NCc1ccccc1 [Example 22A, N^1-benzyl-N^2-[(6-phenylpyridin-3-yl)carbonyl]-L-α-glutamine] | 1000 nM | – |
| O=C(O)CC[C@H](NC(=O)c1ccc(-c2ccccc2)o1)C(=O)NCc1ccccc1 [Example 20, N^1-benzyl-N^2-(5-phenyl-2-furoyl)-L-α-glutamine] | ~22000 nM | – |
| O=C(O)CC[C@H](NC(=O)c1cccc(-c2cccs2)c1)C(=O)NCc1ccccc1 [Example 17XX, N^1-benzyl-N^2-(3-thien-2-ylbenzoyl)-L-α-glutamine] | – | Agg1 IC50 (nM) (Table 1): no inh |
| O=C(O)CCC(NC(=O)c1ccc(Nc2ncccn2)cc1)C(=O)NCc1ccccc1 (stereo not drawn) [Example 8HHHH] | 200 nM | – |
| O=C(O)CC[C@H](NC(=O)c1ccc(-c2ccccc2)cc1)C(=O)NCCc1ccccc1F [Example 8TT, N^2-(biphenyl-4-ylcarbonyl)-N^1-[2-(2-fluorophenyl)ethyl]-L-α-glutamine] | 300 nM | – |
| CC(C)(NC(=O)[C@H](CCC(=O)O)NC(=O)c1ccc(-c2ccccc2)cc1)c1ccccc1 [Example 8TTT, N^2-(biphenyl-4-ylcarbonyl)-N^1-(1-methyl-1-phenylethyl)-L-α-glutamine] | > 10000 nM | – |
| COc1cc(CNC(=O)[C@H](CCC(=O)O)NC(=O)c2ccc(Oc3ccccc3)cc2)cc(OC)c1OC [Example 8NNNN, N^2-(4-phenoxybenzoyl)-N^1-(3,4,5-trimethoxybenzyl)-L-α-glutamine] | 3400 nM | – |
| CC(=O)Nc1ccc(-c2ccc(C(=O)N[C@@H](CCC(=O)O)C(=O)NCc3ccccc3)cc2)cc1 [Example 23, N^2-{[4′-(acetylamino)-1,1′-biphenyl-4-yl]carbonyl}-N^1-benzyl-L-α-glutamine] | > 6000 nM | – |

| Compound | IC50 (Table 1) | other results |
| --- | --- | --- |
| O=C(O)CC[C@H](NC(=O)c1ccc(-c2ccccc2)cc1)C(=O)NCCCCO [Example 5, N^2-(1,1′-biphenyl-4-ylcarbonyl)-N^1-(4-hydroxybutyl)-L-alpha-glutamine] | 1800 nM | – |
| CCOc1ccc(-c2ccc(C(=O)N[C@@H](CCC(=O)O)C(=O)NCc3ccccc3)cc2)cc1 [Example 14, N^1-benzyl-N^2-[(4′-ethoxy-1,1′-biphenyl-4-yl)carbonyl]-L-α-glutamine] | – | Agg1 % @ concentration (Table 1, @ 16,700 (nM)): 60% @ |
| O=C(O)CC[C@H](NC(=O)c1ccc(-c2ccc(OCc3ccc4ccccc4c3)cc2)cc1)C(=O)NCc1ccccc1 [Example 15H, N^1-benzyl-N^2-{[4′-(2-naphthylmethoxy)-1,1′-biphenyl-4-yl]carbonyl}-L-α-glutamine] | 200 nM | – |
| O=C(O)CC[C@H](NC(=O)c1ccc(-c2ccccc2)cc1)C(=O)NCc1ccncc1 [Example 8QQQ, N^2-(biphenyl-4-ylcarbonyl)-N^1-(pyridin-4-ylmethyl)-L-α-glutamine] | 330 nM | – |
| O=C(O)CC[C@H](NC(=O)c1ccc2c(c1)C(=O)c1ccccc1-2)C(=O)NCCCc1ccccc1 [Example 8SSSSSS, N^2-[(9-oxo-9H-fluoren-2-yl)carbonyl]-N^1-(3-phenylpropyl)-L-α-glutamine] | 146 nM | – |
| Cc1cccc(CNC(=O)[C@H](CCC(=O)O)NC(=O)c2ccc(Br)cc2)c1 [Example 18G, N^2-(4-bromobenzoyl)-N-(3-methylbenzyl)-L-α-glutamine] | – | IC50 (Table 2): ~8300 nM |
| CC(C)(Cc1ccccc1)NC(=O)[C@H](CCC(=O)O)NC(=O)c1ccc2c(c1)Cc1ccccc1-2 [Example 6D, N^1-(1,1-dimethyl-2-phenylethyl)-N^2-(9H-fluoren-2-ylcarbonyl)-L-α-glutamine] | 45 nM | – |
| O=C(O)CC[C@H](NC(=O)c1ccc(-c2ccc(NC(=O)c3ccco3)cc2)cc1)C(=O)NCc1ccccc1 [Example 24A, N^1-benzyl-N^2-{[4′-(2-furoylamino)-1,1′-biphenyl-4-yl]carbonyl}-L-α-glutamine] | 1100 nM | – |
| O=C(O)CC[C@H](NC(=O)c1ccc(Nc2ncccn2)cc1)C(=O)O [Example 1, N-[4-(pyrimidin-2-ylamino)benzoyl]-L-glutamic acid] | 900 nM | – |
| CC(C)NC(=O)[C@H](CCC(=O)O)NC(=O)c1ccc(-c2ccccc2)cc1 [Example 8PPP, N^2-(biphenyl-4-ylcarbonyl)-N^1-isopropyl-L-α-glutamine] | 130 nM | – |
| COc1cc(COc2ccc(-c3ccc(C(=O)N[C@@H](CCC(=O)O)C(=O)NCc4ccccc4)cc3)cc2)cc(OC)c1 [Example 15G, N^1-benzyl-N^2-({4′-[(3,5-dimethoxybenzyl)oxy]-1,1′-biphenyl-4-yl}carbonyl)-L-α-glutamine] | 2200 nM | – |
| CCCCCCNC(=O)[C@H](CCC(=O)O)NC(=O)c1ccc(Oc2ccccc2)cc1 [Example 8QQQQ, N^1-hexyl-N^2-(4-phenoxybenzoyl)-L-α-glutamine] | 9600 nM | – |
| CCc1ccc(-c2ccc(C(=O)N[C@@H](CCC(=O)O)C(=O)NCc3ccccc3)cc2)cc1 [Example 13C, N^1-benzyl-N^2-[(4′-ethyl-1,1′-biphenyl-4-yl)carbonyl]-L-α-glutamine] | 9600 nM | – |
| O=C(O)CC[C@H](NC(=O)c1ccc(-c2ccc(NC(=O)c3ccc(F)cc3)cc2)cc1)C(=O)NCc1ccccc1 [Example 24B, N^1-benzyl-N^2-({4′-[(4-fluorobenzoyl)amino]1,1′-biphenyl-4-yl}carbonyl)-L-α-glutamine] | ~2200 nM | – |
| CC(=O)Nc1ccc(-c2ccc(C(=O)N[C@@H](CCC(=O)O)C(=O)O)cc2)cc1 [Example 29, N-{[4′-(acetylamino)-1,1′-biphenyl-4-yl]carbonyl}-L-α-glutamic acid] | 3000 nM | – |
| O=C(O)CC[C@H](NC(=O)c1ccc(-c2ccccc2)cc1)C(=O)NCCc1cccc(-c2ccccn2)c1 [Example 10I, N^2-(biphenyl-4-ylcarbonyl)-N^1-[2-(3-pyridin-2-ylphenyl)ethyl]-L-α-glutamine] | 320 nM | – |
| COc1ccc(CNC(=O)[C@H](CCC(=O)O)NC(=O)c2ccc(-c3ccccc3)cc2)cc1 [Example 8K, N^2-(1,1′-biphenyl-4-ylcarbonyl)-N^1-(4-methoxybenzyl)-L-α-glutamine] | 300 nM | – |
| O=C(O)CC[C@H](NC(=O)c1ccc(-c2ccccc2)cc1F)C(=O)NCc1ccccc1 [Example 17ZZ, N^1-benzyl-N^2-[(3-fluoro-1,1′-biphenyl-4-yl)carbonyl]-L-α-glutamine] | 200 nM | – |
| O=C(O)CC[C@H](NC(=O)c1ccc(-c2ccccc2)cc1)C(=O)NCc1cccc2ccccc12 [Example 8N, N^2-(1,1′-biphenyl-4-ylcarbonyl)-N^1-(1-naphthylmethyl)-L-α-glutamine] | 290 nM | – |
